Measured values taken from PubChem BioAssay (NCI).
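A five-concentration, 48-hour dose response in 96-well plates underlies each endpoint, interpolated linearly between surrounding concentrations. GI50 = concentration required for 50% inhibition of growth. TGI denotes the concentration required for complete inhibition of growth.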

Experiments:
Assay in all cases: NCI tumour cell line growth inhibition, 48 h
HCC-2998 colon = tested on: HCC-2998 colon
KM12 colon = tested on: KM12 colon
OVCAR-8 ovarian = tested on: OVCAR-8 ovarian
HOP-62 NSCLC = tested on: HOP-62 NSCLC
CCRF-CEM leukemia = tested on: CCRF-CEM leukemia
SK-MEL-28 melanoma = tested on: SK-MEL-28 melanoma
RPMI-8226 leukemia = tested on: RPMI-8226 leukemia
SF-268 CNS = tested on: SF-268 CNS
SK-MEL-5 melanoma = tested on: SK-MEL-5 melanoma
COLO 205 colon = tested on: COLO 205 colon

Row | Compound | GI50 (HCC-2998 colon) | TGI (HCC-2998 colon) | GI50 (KM12 colon) | TGI (KM12 colon) | GI50 (OVCAR-8 ovarian) | TGI (OVCAR-8 ovarian) | GI50 (HOP-62 NSCLC) | TGI (HOP-62 NSCLC) | GI50 (CCRF-CEM leukemia) | TGI (CCRF-CEM leukemia) | GI50 (SK-MEL-28 melanoma) | TGI (SK-MEL-28 melanoma) | GI50 (RPMI-8226 leukemia) | TGI (RPMI-8226 leukemia) | GI50 (SF-268 CNS) | TGI (SF-268 CNS) | GI50 (SK-MEL-5 melanoma) | TGI (SK-MEL-5 melanoma) | GI50 (COLO 205 colon) | TGI (COLO 205 colon)
1 | COc1ccc(-c2nc3sc(-c4ccc(Cl)cc4)cn3n2)cc1 | > 50 µM | > 50 µM | 12.2 µM | > 50 µM | 2.6 µM | > 50 µM | 2.36 µM | > 50 µM | > 50 µM | > 50 µM | > 50 µM | > 50 µM | 3.67 µM | > 50 µM | 48 µM | > 50 µM | 14 µM | > 50 µM | 2.65 µM | > 50 µM
2 | COc1ccc(N2Cc3cnc(Nc4ccccc4)nc3N([C@@H]3CC[C@@H](O)C3)C2=O)cc1 | 18.8 µM | > 25 µM | 3.54 µM | > 25 µM | 4.86 µM | > 25 µM | 8.87 µM | > 25 µM | 5.98 µM | > 25 µM | 8.19 µM | > 25 µM | 5.72 µM | > 25 µM | 5.05 µM | > 25 µM | 9.25 µM | > 25 µM | 2.76 µM | > 25 µM
3 | C=C(CCCCCCCCC)CC(=O)SCCNC(=O)CCNC(=O)C(O)C(C)(C)COP(=O)(O)OP(=O)(O)OCC1OC(n2cnc3c(N)ncnc32)C(O)C1OP(=O)(O)O (stereo not given) | – | > 100 µM | – | > 100 µM | – | > 100 µM | – | > 85.7 µM | – | > 100 µM | – | 21.6 µM | – | 62.7 µM | – | 15.3 µM | – | 52.2 µM | – | > 100 µM
4 | C=CCN(/C=C1/C(=O)O[C@H](COC)[C@@]2(C)C1=C(O)C(=O)C1=C2[C@H](OC(C)=O)C[C@]2(C)C(=O)CC[C@@H]12)CC=C | 0.385 µM | > 7.08 µM | 2.52 µM | > 10 µM | 2.87 µM | > 10 µM | 2.04 µM | > 10 µM | 0.709 µM | > 6.51 µM | 1.1 µM | > 10 µM | 2 µM | > 10 µM | 1.71 µM | > 10 µM | 3.16 µM | > 10 µM | 2.17 µM | > 10 µM
5 | O=Cc1ccccc1OCCOc1cc(OCCOc2ccccc2C=O)c(OCCOc2ccccc2C=O)cc1OCCOc1ccccc1C=O | – | > 100 µM | – | > 100 µM | – | > 100 µM | – | > 100 µM | – | > 100 µM | – | > 100 µM | – | > 100 µM | – | > 100 µM | – | > 100 µM | – | > 100 µM
6 | CSC(CC(=O)O)C(=O)O (stereo not given) | – | > 100 µM | – | > 100 µM | – | > 100 µM | – | > 100 µM | – | > 100 µM | – | > 100 µM | – | > 100 µM | – | > 100 µM | – | > 100 µM | – | > 100 µM
7 | C/C(=N\O)c1cccc(Nc2cc(-n3ccnn3)c3ccccc3n2)c1 | 20.5 µM | 56.5 µM | 15.1 µM | 33.3 µM | 17.5 µM | 41 µM | 15.2 µM | 30.7 µM | 11.7 µM | 31.3 µM | 0.444 µM | 30.2 µM | 12.5 µM | 32 µM | > 100 µM | > 100 µM | 13.4 µM | 26.2 µM | 22.2 µM | 59 µM
8 | C[C@H](NC(=O)[C@@H]1CSSC[C@@H](NC(=O)c2nc3ccccc3cc2O)C(=O)NCC(=O)N1C)c1ccccc1 | 7.48 µM | 17.1 µM | 0.629 µM | 8.56 µM | 5.16 µM | 17.7 µM | 11.6 µM | 20.7 µM | 1.89 µM | 10.5 µM | 0.906 µM | 9.83 µM | 5.67 µM | 21.5 µM | 0.43 µM | 11 µM | 0.582 µM | 3.82 µM | 0.963 µM | 2.34 µM
